The values that follow come from patent publication US20240425496A1, “AZETIDINYL PYRIMIDINES AND USES THEREOF” (Aerie Pharmaceuticals, Inc., priority 2021, published 2024).

Holding throughout (type): biochemical
The target of assay [1] is JAK2 (Homo sapiens (Human), UniProt O60674). Put plainly: JAK kinase assay (KINASE-GLO luminescent), JAK2 enzyme. Conditions: JAK2 enzyme 10 nM, Abl peptide substrate. As for the experimental part: All compounds were initially prepared as 10 mM stocks in anhydrous dimethylsulfoxide (DMSO). A 20 μL aliquot of the 10 mM solutions was transferred to individual wells in column 1 of a 96-well polypropylene microtiter plate (Corning #3363) and diluted with DMSO to give a final compound concentration of 4 mM. Test compounds were then serially diluted 1:5 in DMSO for an 11-point concentration response and further diluted in the assay buffer bringing all compound concentrations to a final range of 100 μM to […] in 2.5% DMSO. The assay was performed in white 96-well, flat-bottom, half-area, non-binding assay plate (Corning #3642) in assay buffer consisting of 20 mM HEPES (pH 7.5), 10 mM MgCl2*6H2O, 100 μM sodium orthovanadate, 0.05% CHAPS and 0.1% bovine serum albumin. A 10 μL aliquot of compound from each well of the intermediate dilution plate and 20 μL of a 2× substrate/enzyme solution containing acceptor substrate (800 nM RSK2 peptide […] (SEQ ID NO: 1)), ROCK2 enzyme (10 nM), or ROCK1 enzyme, and 1,4-Dithiothreitol (DTT, 2 uM) were added to all wells. The reaction was initiated by the addition of 10 μL of 4× stock solution ATP (2 μM). Reactions were thoroughly mixed manually, covered, and allowed to incubate at room temperature for 75 min. Protein kinase activity was quantitated using Promega's KINASE-GLO™ luminescent Kinase Assay Kit according to the manufacturer's directions. ATP concentrations remaining in Test wells following the termination of the enzymatic reaction were compared against control wells containing equivalent amounts of DMSO containing no inhibitor (CTRL). […] Percent of Control (POC) values were determined for each concentration of compound tested according to the equation: […]
IC50 values were calculated using the following 4-parameter logistic curve-fitting algorithm:
Compounds were prepared in the exact same manner as described in the ROCK Kinase Assay with the exception to the substrate and enzyme. […]
(Kinase-Glo reads ATP consumption through a luciferase reaction.)

The target of assay [2] is TYK2 (Homo sapiens (Human), UniProt P29597). Put plainly: JAK kinase assay (KINASE-GLO luminescent), TYK2 enzyme. Conditions: TYK2 enzyme 10 nM, Abl peptide substrate. A digest of the protocol:
(§1)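 Kinase-Glo luminescence measures ATP remaining after 75 min at room temperature; ATP 2 μM in 4× stock. 11-point 1:5 dilutions, 2.5% DMSO final. Percent of DMSO control per concentration, IC50 by 4-parameter logistic fit.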

Assay [3] has as its target JAK1 (Homo sapiens (Human), UniProt P23458). The assay is described as follows: JAK kinase assay (KINASE-GLO luminescent), JAK1 enzyme. As to conditions: JAK1 enzyme 10 nM, Abl peptide substrate. A digest of the protocol: as §1

Each structure is given as a SMILES string. Some results are limits rather than exact numbers.

Sequence of TYK2 (P29597 whole entry, species assumed): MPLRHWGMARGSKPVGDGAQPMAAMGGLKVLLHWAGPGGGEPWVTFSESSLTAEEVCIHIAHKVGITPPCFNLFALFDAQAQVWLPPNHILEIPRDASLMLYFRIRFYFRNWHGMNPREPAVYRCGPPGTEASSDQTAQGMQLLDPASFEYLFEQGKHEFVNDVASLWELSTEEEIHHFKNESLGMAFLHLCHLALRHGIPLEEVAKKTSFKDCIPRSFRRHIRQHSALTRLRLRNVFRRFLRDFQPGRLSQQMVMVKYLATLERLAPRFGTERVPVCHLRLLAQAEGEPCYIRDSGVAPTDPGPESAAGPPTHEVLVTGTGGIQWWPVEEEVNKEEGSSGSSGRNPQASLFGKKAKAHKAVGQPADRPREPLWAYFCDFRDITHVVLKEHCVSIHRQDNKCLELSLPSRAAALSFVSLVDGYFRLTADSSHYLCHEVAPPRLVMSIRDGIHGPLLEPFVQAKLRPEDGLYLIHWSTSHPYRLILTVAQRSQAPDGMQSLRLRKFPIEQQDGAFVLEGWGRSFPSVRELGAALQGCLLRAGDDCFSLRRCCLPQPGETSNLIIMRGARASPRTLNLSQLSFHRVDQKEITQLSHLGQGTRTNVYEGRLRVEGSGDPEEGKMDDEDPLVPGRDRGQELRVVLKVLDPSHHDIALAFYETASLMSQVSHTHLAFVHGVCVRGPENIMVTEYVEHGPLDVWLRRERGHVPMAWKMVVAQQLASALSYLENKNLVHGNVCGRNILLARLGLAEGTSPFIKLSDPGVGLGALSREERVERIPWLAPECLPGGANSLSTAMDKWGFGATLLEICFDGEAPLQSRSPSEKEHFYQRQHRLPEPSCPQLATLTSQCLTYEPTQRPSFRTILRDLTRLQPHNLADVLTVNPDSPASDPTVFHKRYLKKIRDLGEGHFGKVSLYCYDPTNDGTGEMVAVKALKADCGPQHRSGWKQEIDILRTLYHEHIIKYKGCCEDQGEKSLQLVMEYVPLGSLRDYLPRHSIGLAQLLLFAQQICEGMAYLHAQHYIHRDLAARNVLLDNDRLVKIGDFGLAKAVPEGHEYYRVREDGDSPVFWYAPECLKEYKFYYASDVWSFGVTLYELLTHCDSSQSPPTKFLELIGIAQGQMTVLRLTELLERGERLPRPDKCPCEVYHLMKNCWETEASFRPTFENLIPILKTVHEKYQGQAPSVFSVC
Sequence of JAK2 (O60674 whole entry, species assumed): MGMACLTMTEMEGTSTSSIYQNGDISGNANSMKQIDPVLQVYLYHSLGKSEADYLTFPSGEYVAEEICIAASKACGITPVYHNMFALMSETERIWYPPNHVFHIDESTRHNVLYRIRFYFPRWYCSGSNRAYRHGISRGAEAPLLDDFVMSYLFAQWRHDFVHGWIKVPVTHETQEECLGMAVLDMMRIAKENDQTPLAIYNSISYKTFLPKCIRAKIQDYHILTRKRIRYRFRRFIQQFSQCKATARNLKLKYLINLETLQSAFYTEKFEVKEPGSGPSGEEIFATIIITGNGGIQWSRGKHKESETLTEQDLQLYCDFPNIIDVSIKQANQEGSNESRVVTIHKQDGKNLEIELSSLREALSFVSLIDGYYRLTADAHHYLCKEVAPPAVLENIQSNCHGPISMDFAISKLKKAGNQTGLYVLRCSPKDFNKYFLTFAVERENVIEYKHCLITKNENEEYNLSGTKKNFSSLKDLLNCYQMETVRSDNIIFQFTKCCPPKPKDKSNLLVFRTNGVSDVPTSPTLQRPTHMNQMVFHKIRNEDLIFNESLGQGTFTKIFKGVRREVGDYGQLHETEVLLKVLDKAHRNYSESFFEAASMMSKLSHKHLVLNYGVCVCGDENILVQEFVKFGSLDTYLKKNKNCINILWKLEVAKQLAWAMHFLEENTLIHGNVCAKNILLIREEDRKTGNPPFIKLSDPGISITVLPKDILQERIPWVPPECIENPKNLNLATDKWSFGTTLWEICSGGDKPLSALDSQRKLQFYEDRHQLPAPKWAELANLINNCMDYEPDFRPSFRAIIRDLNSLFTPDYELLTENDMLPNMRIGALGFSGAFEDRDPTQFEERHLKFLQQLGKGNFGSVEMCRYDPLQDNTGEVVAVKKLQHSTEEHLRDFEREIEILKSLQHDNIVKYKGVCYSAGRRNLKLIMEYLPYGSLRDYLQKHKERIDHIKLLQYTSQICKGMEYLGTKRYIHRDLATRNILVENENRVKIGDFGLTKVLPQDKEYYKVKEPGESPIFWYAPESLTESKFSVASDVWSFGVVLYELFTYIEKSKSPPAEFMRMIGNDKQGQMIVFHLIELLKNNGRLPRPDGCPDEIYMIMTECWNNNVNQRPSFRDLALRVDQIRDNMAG
Sequence of JAK1 (P23458 whole entry, species assumed): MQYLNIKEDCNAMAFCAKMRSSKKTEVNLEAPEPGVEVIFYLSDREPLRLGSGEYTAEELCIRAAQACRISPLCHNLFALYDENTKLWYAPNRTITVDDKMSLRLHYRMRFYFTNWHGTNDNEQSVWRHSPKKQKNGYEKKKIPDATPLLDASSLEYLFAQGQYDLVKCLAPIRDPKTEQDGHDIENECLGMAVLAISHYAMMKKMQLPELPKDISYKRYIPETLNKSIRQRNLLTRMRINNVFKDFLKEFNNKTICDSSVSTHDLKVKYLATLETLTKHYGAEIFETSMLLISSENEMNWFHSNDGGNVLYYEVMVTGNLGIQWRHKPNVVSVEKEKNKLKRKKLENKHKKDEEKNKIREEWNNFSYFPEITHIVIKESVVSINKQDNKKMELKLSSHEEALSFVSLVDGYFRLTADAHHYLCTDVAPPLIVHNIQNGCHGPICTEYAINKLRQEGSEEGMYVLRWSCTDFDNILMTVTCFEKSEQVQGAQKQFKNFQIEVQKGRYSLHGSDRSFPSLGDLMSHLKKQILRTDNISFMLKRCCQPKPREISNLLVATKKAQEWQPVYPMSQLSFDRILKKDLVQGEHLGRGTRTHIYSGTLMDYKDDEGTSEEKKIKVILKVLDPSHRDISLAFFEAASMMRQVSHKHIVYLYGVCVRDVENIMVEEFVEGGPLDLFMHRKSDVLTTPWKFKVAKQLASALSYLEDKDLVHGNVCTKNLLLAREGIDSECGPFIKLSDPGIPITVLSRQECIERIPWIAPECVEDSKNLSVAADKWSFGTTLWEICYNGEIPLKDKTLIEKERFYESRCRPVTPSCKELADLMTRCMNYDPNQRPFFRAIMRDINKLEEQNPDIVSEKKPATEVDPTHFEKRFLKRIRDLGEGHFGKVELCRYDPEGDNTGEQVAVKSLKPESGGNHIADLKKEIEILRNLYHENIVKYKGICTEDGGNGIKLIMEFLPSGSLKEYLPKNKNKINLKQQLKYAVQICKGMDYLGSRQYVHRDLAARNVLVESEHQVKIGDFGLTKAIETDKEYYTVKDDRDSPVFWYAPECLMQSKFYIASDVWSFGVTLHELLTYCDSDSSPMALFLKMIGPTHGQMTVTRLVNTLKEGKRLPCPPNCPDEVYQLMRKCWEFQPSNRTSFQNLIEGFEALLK

On to `Cc1cc(Nc2ncc(C)c(N3CC(C#N)C3)n2)sn1` [E7], for which the IC50 (in general, the point on the concentration scale where inhibition reaches its midpoint) in assay [1] is under 50 nM.

`Cc1cc(Nc2ncc(C)c(N3CC(CC#N)(N4CCN(C)[C@H](C)C4)C3)n2)sn1` [E52C]: the IC50 was under 20 nM in assay [1] and under 10 nM in assay [2].

`Cc1cnc(Nc2ccc3c(c2)CN(C)C3)nc1N1CC(CC#N)(N2CCC(CCF)CC2)C1` [E112]: the IC50 in assay [1] and in assay [3] was under 50 nM throughout.

As for `Cc1cc(Nc2ncc(C)c(N3CC(CC#N)(NC(=O)c4cccc(F)c4F)C3)n2)sn1` [E312], the IC50 in assay [3] and in assay [2] was under 10 nM throughout.

Regarding `Cc1cc(Nc2ncc(C)c(N3CC(CC#N)(NC(=O)c4ccc(F)c(F)c4)C3)n2)sn1` [E313], the IC50 was under 20 nM in assay [3] and under 50 nM in assay [2].

Consider `Cc1cc(Nc2ncc(C)c(N3CC(CC#N)(NC(=O)c4cccc(Cl)c4)C3)n2)sn1` [E314], for which the IC50 in assay [3] and in assay [2] was under 10 nM in each case.

Turning to `Cc1cc(Nc2ncc(C)c(N3CC(CC#N)(NC(=O)c4cccc(C(F)(F)F)c4)C3)n2)sn1` [E315], the values for the IC50 in assay [3] and in assay [2] were under 10 nM and under 20 nM, respectively.

Turning to `Cc1cc(Nc2ncc(C)c(N3CC(CC#N)(NC(=O)c4cc(F)cc(F)c4C)C3)n2)sn1` [E317], the IC50 is under 30 nM in assay [3] and under 20 nM in assay [2].

For the compound `CCC1(NC(=O)c2cccc(F)c2)CN(c2nc(Nc3cc(C)ns3)ncc2C)C1` [E318B], the IC50 in assay [3] and in assay [2] was under 10 nM each time.

Take `CCC1(NC(=O)c2cccc(F)c2)CN(c2nc(Nc3cnn(C)c3)ncc2C)C1` [E318C]: the IC50 in assay [3] is under 10 nM; in assay [2], under 50 nM.

For the compound `Cc1cc(Nc2ncc(C)c(N3CC(CC#N)(NC(=O)c4cccc(F)c4C)C3)n2)sn1` [E318], the results for the IC50 in assay [3] and in assay [2] were under 50 nM and under 30 nM, respectively.

As for `Cc1cc(Nc2ncc(C)c(N3CC(CC#N)(NCc4cccc(Cl)c4)C3)n2)sn1` [E350], the IC50 in assay [3] and in assay [2] was under 10 nM each time.

Turning to `Cc1cnc(Nc2cnn(C)c2)nc1N1CC(CC#N)(NCc2cccc(Cl)c2)C1` [E351], the IC50 in assay [3] was under 20 nM; in assay [2], under 50 nM.

For `Cc1cc(Nc2ncc(C)c(N3CC(CC#N)(NC(C)c4cccc(F)c4)C3)n2)sn1` (stereo not drawn) [E352], the IC50 in assay [3] was under 100 nM; in assay [2] it was under 50 nM.

As for `Cc1cc(Nc2ncc(C)c(N3CC(CC#N)(NC(=O)c4cncc(F)c4)C3)n2)sn1` [E353], the half-inhibitory concentration (IC50) is under 20 nM in assay [3] and under 50 nM in assay [2].

As to `Cc1cc(Nc2ncc(C)c(N3CC(CC#N)(NC(=O)C4CCCCC4(F)F)C3)n2)sn1` (stereo not drawn) [E354], the IC50 in assay [3] and in assay [2] was under 50 nM each time.

As to `Cc1cc(Nc2ncc(C)c(N3CC(CC#N)(NC(=O)C4CCCC(F)(F)C4)C3)n2)sn1` (stereo not drawn) [E356], the IC50 in assay [3] and in assay [2] was under 10 nM throughout.

As for `Cc1cc(Nc2ncc(C)c(N3CC(CC#N)(NCC4CC4(F)F)C3)n2)sn1` (stereo not drawn) [E357], the figures for the IC50 in assay [3] and in assay [2] were under 20 nM and under 10 nM, respectively.

With `Cc1cc(Nc2ncc(C)c(N3CC(CC#N)(NCC4CCC(F)(F)C4)C3)n2)sn1` (stereo not drawn) [E358], the IC50 in assay [3] and in assay [2] was under 10 nM in each case.

`Cc1cc(Nc2ncc(C)c(N3CC(CC#N)(NCC4CCC(F)C4)C3)n2)sn1` (stereo not drawn) [E359]: the 50% inhibitory concentration (IC50) in assay [3] and in assay [2] was under 10 nM each time.
